Source: patent publication US20260034119A1, “5-METHOXY-N,N-[…][…], THEIR […], AND METHODS FOR TREATMENT OF NEUROLOGICAL, […], AND SUBSTANCE USE DISORDERS” (priority 2023, published 2026)
Read-outs that look alike come from different tables or passages of the source.

Tests used:
[1] = In vivo pharmacokinetics in mice (plasma and brain, subcutaneous); set-up: species or system mouse; conditions: for Kp / Cmax: male, C57BL/6, mouse, sc, 1 mg/kg; for Kp: brain and plasma
Description: Test System: Healthy male C57BL/6 mice (8-12 weeks old) weighing between 20 to 35 g were procured from Global (India). Three mice were housed in each cage. Temperature and humidity were maintained at 22±3° C. and 30-70%, respectively and illumination was controlled to give a sequence of 12 hr light and 12 hr dark cycle. Temperature and humidity were recorded by auto-controlled data logger system. All animals were provided laboratory rodent diet (Envigo Research Private Ltd, Hyderabad, India). Reverse osmosis water treated with UV light was provided ad libitum.
Study Design: Total twenty-seven male mice were used in this study with 3 mice/time point design. Animals were administered subcutaneously […] with solution formulation of compound at the requited dose.
Formulation Preparation: Accurately weighed of the desired compound was taken in a labeled bottle. To this the appropriate amount of normal saline was added, vortexed and followed by addition of 2 mol. equiv. of glacial acetic acid. The above formulation was again vortexed and sonicated for about 1 h with intermittent vortexing to obtain clear solution. The final dose formulation was filtered through 0.45 micron filter. No adverse clinical signs in any animals during study period.
Sample Collection: Blood samples (approximately 60 μL) were collected under light isoflurane anesthesia (Surgivet®) from retro orbital plexus from a set of three mice at 0.083, 0.25, 0.5, 1, 2, 4, 8, and 12 hr. Immediately after blood collection, plasma was harvested by centrifugation at 4000 rpm, 10 min at […] and samples were stored at −70±10° C. until bioanalysis. Following blood collection, immediately animals were sacrificed followed by abdominal vena-cava was cut open and whole body was perfused from heart using 10 mL of normal saline. Brain samples were collected from set of three mice at 0.083, 0.25, 0.5, 1, 2, 4, 8, and 12 hr. After isolation, brain samples were rinsed three times in ice cold normal saline (for 5-10 seconds/rinse using ˜5-10 mL normal saline in disposable petri dish for each rinse) and dried on blotting paper. Brain samples were homogenized using ice-cold phosphate buffer saline (pH-7.4). Total homogenate volume was three times the tissue weight. All homogenates were stored below −70±10° C. until bioanalysis.
Concentrations of the compound in mouse plasma and brain samples were determined by fit for purpose LC-MS/MS method. The sample processing and extraction procedure, chromatographic and mass spectrometric conditions as follows:
Non-Compartmental-Analysis tool of Phoenix WinNonlin® Version 8.0 (Certara, Princeton, NJ, USA) was used to assess the pharmacokinetic parameters. Peak plasma concentration (Cmax) and time for the peak plasma concentration (Tmax) were the observed values. The areas under the concentration time curve (AUClast and AUCinf) were calculated by linear trapezoidal rule. The terminal elimination rate constant, ke was determined by regression analysis of the linear terminal portion of the log plasma concentration-time curve. Tissue-Kps were calculated using Microsoft Excel® (Microsoft Corporation, […], WA, USA).

[2] = target: 5-HT1A (Homo sapiens, UniProt P08908); assay: BRET signaling assay: 5-HT1A-mediated activation of heterotrimeric Gi1 (TRUPATH, HEK293-T)
[3] = test system: mice; assay: Open field locomotor activity; assay type: in vivo, mouse
[4] = test system: C57BL/6J mice; assay: Sucrose preference test after chronic social defeat stress; assay type: in vivo, mouse; conditions: stressed mice
Excerpt: The sucrose preference test is a volitional two-bottle choice procedure in which mice are given the choice between consuming water and a 1% sucrose solution. This paradigm has been used extensively to assess the effects of stress-induced anhedonia. On day 10 of CSDS mice were individually housed and habituated to two bottles containing just water. Twenty-four hours later, following the SI test, one bottle was replaced with a 1% sucrose solution (w/v) made with water from the animal vivarium. Mice had ad libitum overnight access to both bottles and preference for sucrose over water was calculated as follows: [sucrose/(sucrose+water)*100]. Data were averaged from two independent experiments. A total of 27 mice were administered vehicle (9 control, 18 stress), 27 received 4-F, 5-MeO-PyrT (9 control, 18 stress), 15 received WAY-100635 (5 control, 10 stress), and 15 received 4-F, 5-MeO-PyrT+WAY-100635 (5 control, 10 stress). More animals were used for the stressed groups due to the inherent resilience of mice to social defeat stress (Krishnan et al. 2007). Analysis of different treatment conditions of control and stressed animals was done in GraphPad Prism using two-way ANOVA.

[5] = Human plasma protein binding; assay type: in vitro ADME; conditions: for fraction unbound: human, plasma
[6] = target: T1, 5-HT1A A365N (Homo sapiens, UniProt P08908, A365N); assay: Gi1 BRET at mutant 5-HT1A A365N; assay type: cell-based; conditions: Gi1 BRET, 5-HT1A A365N^6.55
T1 construct: expressed in transfected cells; host or cells: HEK293-T
T1 sequence (P08908 1-422 A365N): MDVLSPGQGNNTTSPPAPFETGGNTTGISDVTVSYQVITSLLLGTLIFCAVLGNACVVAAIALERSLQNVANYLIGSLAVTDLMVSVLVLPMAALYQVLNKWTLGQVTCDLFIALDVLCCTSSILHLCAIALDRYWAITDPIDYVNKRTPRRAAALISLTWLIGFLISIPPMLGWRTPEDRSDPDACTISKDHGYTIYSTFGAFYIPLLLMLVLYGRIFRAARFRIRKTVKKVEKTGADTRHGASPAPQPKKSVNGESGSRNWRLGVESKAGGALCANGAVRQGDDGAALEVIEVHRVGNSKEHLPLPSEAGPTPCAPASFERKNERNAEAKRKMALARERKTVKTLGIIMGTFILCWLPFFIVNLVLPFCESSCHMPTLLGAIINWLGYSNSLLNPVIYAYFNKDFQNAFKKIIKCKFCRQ

Sequence of 5-HT1A (P08908 whole entry): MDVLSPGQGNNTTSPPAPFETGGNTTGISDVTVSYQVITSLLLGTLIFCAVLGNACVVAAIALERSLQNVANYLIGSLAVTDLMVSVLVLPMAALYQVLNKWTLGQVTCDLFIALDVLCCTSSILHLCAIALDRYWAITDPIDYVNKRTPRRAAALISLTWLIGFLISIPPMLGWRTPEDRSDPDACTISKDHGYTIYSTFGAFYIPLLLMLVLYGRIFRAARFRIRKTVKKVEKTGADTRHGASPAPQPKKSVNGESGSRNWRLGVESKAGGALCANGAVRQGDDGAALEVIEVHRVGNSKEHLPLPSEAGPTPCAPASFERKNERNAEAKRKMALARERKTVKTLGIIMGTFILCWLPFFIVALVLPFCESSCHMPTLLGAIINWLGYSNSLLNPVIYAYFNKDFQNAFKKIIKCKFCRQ

Question: For `COc1ccc2[nH]cc(CCN3CCCC3)c2c1F` [4-F, 5-MeO-PyrT, 4-Fluoro, 5-methoxypyrrolidinyl-tryptamine], which Kp ([1]; mouse, 1 mg/kg s.c., read-out: total brain:plasma ratio) is on record?
Answer: 3.3

Question: What about the Kp ([1]; mouse, 1 mg/kg s.c., read-out: unbound brain:plasma ratio) of the same compound?
Answer: 0.91

Question: And the Cmax ([1]; brain, mouse brain, 1 mg/kg SC, read-out: Total Cmax (ng/mL), Brain)?
Answer: 143 ng/mL

Question: What about the Cmax ([1]; brain, mouse, 1 mg/kg subcutaneous, read-out: Cmax/brain) of the same compound?
Answer: 143 ng/mL

Question: What about the Cmax ([1]; plasma, mouse plasma, 1 mg/kg SC, read-out: Total Cmax (ng/mL), Plasma) of the same compound?
Answer: 44 ng/mL

Question: And the “Total AUClast ((hr*ng)/mL), Brain” value ([1]; mouse brain, 1 mg/kg SC)?
Answer: 128.34 ng·h/mL

Question: What about the “time at which brain penetration peaks” value ([1]; mouse brain, 1 mg/kg s.c.) of the same compound?
Answer: 30 min

Question: And the “Total AUClast ((hr*ng)/mL), Plasma” value ([1]; mouse plasma, 1 mg/kg SC)?
Answer: 26.40 ng·h/mL

Question: And the “compound largely cleared within” value ([1]; mouse, 1 mg/kg s.c.)?
Answer: ≤ 2 h

Question: What about the “estimated free drug concentration in the brain at Tmax” value ([1]; mouse, 1 mg/kg s.c.) of the same compound?
Answer: ~100 nM

Question: And the “Emax, 5-HT1A-mediated activation of Gi1 (BRET)” value [2]?
Answer: 102.8 % of 5-HT

Question: And the pEC50 ([2]; Gi1 BRET, 5-HT1A WT)?
Answer: (9.43,

Question: What about the EC50 ([2]; read-out: Gi BRET EC50) of the same compound?
Answer: 0.37 nM

Question: What about the “lowest dose producing suppression of locomotion” value ([3]; mice, s.c.) of the same compound?
Answer: 0.03 mg/kg

Question: What about the “sedative effects after WAY-100635 pretreatment” value ([3]; open field, WAY-100635 1 mg/kg s.c. 15 min prior, compound 1 mg/kg s.c.) of the same compound?
Answer: negates the sedative effects

Question: And the “effect on sucrose preference under WAY-100635 co-administration” value [4]?
Answer: reversed the effects

Question: What about the sucrose preference ([4]; relative to vehicle-treated animals) of the same compound?
Answer: significantly increased sucrose preference

Question: What about the recovery [5] of the same compound?
Answer: 81.8%

Question: And the “% Compound remaining at 4 h” value ([5]; 4 h)?
Answer: 97.9%

Question: And the fraction unbound ([5]; read-out: % Bound Mean (converted))?
Answer: 0.74

Question: What about the fraction unbound ([5]; read-out: % Unbound) of the same compound?
Answer: 0.74

Question: And the fraction unbound ([5]; read-out: fu)?
Answer: 0.74

Question: What about the fraction unbound ([5]; replicate R1, read-out: % Bound R1 (converted)) of the same compound?
Answer: 0.778

Question: What about the fraction unbound ([5]; replicate R2, read-out: % Bound R2 (converted)) of the same compound?
Answer: 0.702

Question: And the pEC50 [6]?
Answer: (8.29,

Question: And the EC50 ([6]; read-out: EC50)?
Answer: 5.08 nM
